Legend:
SW480 xenograft = SW480 xenograft study in NSG mice; assay type: in vivo, NOD scid gamma (NSG) mice
Protocol: NOD scid gamma (NSG) mice were purchased from CIBM-UGR and housed at the animal facility according to institutional guidelines (Approved Ethical Committee #152-CEEA-OH-2016). For xenograft generation, 1 × 10^5 SW480 cells in 100 μL PBS were subcutaneously injected into the flank of 8-week-old female mice. Treatment started when tumors reached ~20 mm^3. Mice were randomly divided into two groups of seven mice each and treated with either vehicle DMSO or 200 mg/kg of GA intraperitoneally every other day for 38 days. Animals were monitored every two days after cell injection until final time point when they were sacrificed, and tumors were dissected for further analyses. Specifically, tumor volumes were determined every two days using digital calipers according to the formula: In progress tumor volume = (π × length × width^2)/6 [12].
Fixation, paraffin-embedding, and sectioning of tumor samples were performed by the histopathology core service at the Centre for Genomics and Oncological Research (Granada, Spain). In order to evaluate the percentage of proliferating cells, tumor sections were immunostained with Ki67 and counterstained with hematoxylin and eosin (H&E) at Atrys Health (Barcelona, Spain). The staining was visualized using NDP.view2 Viewing software (Hamamatsu), and Ki67 coverage was quantified on ten different images per tumor using Fiji software. In order to measure BG4 signal, tumor sections were dewaxed and rehydrated following standard methods. Epitope retrieval was performed at 100 °C for 20 min with citrate buffer (citrate-based buffer pH 6.0) according to previous studies. […] Slides were then counterstained for 5 min with DAPI to visualize the cell nuclei. Antifade Mowiol (81381, Merck, Darmstadt, Germany) was used as mounting media. Images were acquired on a Confocal Zeiss LSM 710 inverted microscope with a 63× immersion objective. BG4 mean nuclear fluorescence intensity was quantified using Fiji software (N > 2000). Antibodies used are listed in Supplementary Table S1.
We investigated the activity of GA in a mouse xenograft model of CRC to determine if the in vitro activity of GA was paralleled in vivo. According to previous reports with SW480 cells, we executed xenograft studies by subcutaneous injection in NOD scid gamma (NSG) mice. Intraperitoneal treatment started when tumors reached ~20 mm^3 (35 days post-injection), and a therapeutic schedule with either a vehicle or 200 mg/kg of GA, every other day for 38 days, was explored based on previous studies. Initially, each group included seven animals but two mice from the control group were excluded because the tumors had developed late. Therefore, five mice were considered in the control group and seven in the GA-treated one. […] In particular, when comparing the tumor volume between control and treated animals at each time point by Student’s two-tailed t-test, significant differences were observed from the 23rd day after initiation of the treatment. Histopathological analyses of tumors from animals sacrificed at the ending point were also conducted. […] Furthermore, immunohistochemical assessment of the antigen Ki67 was used to estimate cell proliferation.

SW480 cells = assay: Resazurin cytotoxic assay, tumoral SW480; assay type: cell-based, human; conditions: SW480 primary tumor cells, mean ± SD
Protocol: CRL1790, SW480 and SW620 cell lines were purchased from American Type Culture Collection (ATCC). Cells were cultured at 37 °C with 5% CO2 atmosphere in medium supplemented with 10% fetal bovine serum (10270106, Gibco, Waltham, MA, USA), 10 mg/mL penicillin, 10 mg/mL streptomycin, […] amphotericin, and 0.03% L-Glutamine as recommended by the ATCC. MEM medium (M5650, Merck, Darmstadt, Germany) was used for non-tumoral CRL1790, and RPMI 1640 medium (L0501-500, Biowest, Nuaillé, France) was used for both tumoral SW480 and SW620 cell lines.
Cytotoxic activity was screened using Resazurin Fluorimetric Assay (R7017, Merck, Darmstadt, Germany), according to the manufacturer’s protocol. Cells seeded into 96-well plates (8 × 10^3 cells/well) were treated for 48 h with phenolic compounds at increasing concentrations from 2 × 10^−5 µM to 100 µM. Negative control with vehicle DMSO was included. Fluorescence was determined using Nanoquant Infinite M200 Pro multi-plate reader (Tecan). Half-maximal inhibitory concentration (IC50) values were determined in triplicate by non-linear regression with Graphpad (Prism).
Natural products such as phenolic compounds have recently attracted significant attention for their anticancer properties. […] We used three different cell lines to mimic CRC progression. In particular, CRL1790 are colon epithelial cells simulating the non-tumoral stage. In addition, SW480 is Dukes’ type B colorectal adenocarcinoma cells representing the primary tumor. Finally, SW620 constitutes Dukes’ type C colorectal adenocarcinoma derived from metastasic site cells to mimic the most aggressive metastasic stage. […] Cytotoxic potency upon 48 h treatment with phenolic compounds was examined by determination of half-maximal inhibitory concentration (IC50) values using the Resazurin method (Table 1). Only GA inhibited cell growth in SW480 and SW620 at clinically-relevant concentrations (IC50 values lower than 30 µM).

CMYC G4 = assay: PCR-stop assay, CMYC G4; assay type: biochemical; conditions: CMYC G4 sequence, GA 0-100 µM
[1] = tumors at end point, 200 mg/kg GA

SMILES: O=C(O)c1cc(O)c(O)c(O)c1 [Gallic acid, 3,4,5-trihydroxybenzoic acid]
- body weight reduction or adverse effects (SW480 xenograft; 200 mg/kg GA i.p. every other day for 38 days): No body weight reduction or adverse effects such as tumor ulceration was observed
- progression of tumor xenografts (tumor volume) (SW480 xenograft; 200 mg/kg GA i.p. every other day for 38 days vs vehicle): robust blockade on the progression of tumor xenografts
- damage to major organs (SW480 xenograft; CRC xenografts treated with GA): without causing observable damage to major organs
- 5′ETS expression in tumors (qRT-PCR) (SW480 xenograft; responder mice, 200 mg/kg GA): significantly downregulated
- CMYC expression in tumors (qRT-PCR) (SW480 xenograft; responder mice, 200 mg/kg GA): significantly downregulated
- Ki67 coverage in tumor sections (SW480 xenograft; [1]): coverage of Ki67 was significantly decreased
- nuclear BG4 signal in tumor sections (SW480 xenograft; [1]): significant increase in nuclear BG4 signal
- IC50 (SW480 cells; Homo sapiens, SW480, 48 h): < 30 µM
- IC50 (SW480 cells; 48 h): 22.4 ± 2.12 µM
- concentration inhibiting accumulation of amplified products (CMYC G4): 50 µM

Source: publication PMC9179882 (Cancers, 2022)
